Results reported in PubChem BioAssay AID1996.
Values after ≈ are worked out from the molar mass of the structure shown.

Settings: buffer; pH 7.4; 200.0 µM
In the case of CCNC(=O)COc1ncnc2scc(-c3ccc(F)cc3)c12, the solubility kinetic is reported as > 49.7 µg/mL. COC(=O)c1ccc(/C=C2\Oc3ccccc3NC2=O)cc1 gave a solubility kinetic of 1 µg/mL (≈ 3.39 µM). For CC(CNS(=O)(=O)c1ccc(Br)cc1)CN(C)C (stereo unspecified), the solubility kinetic was > 50.3 µg/mL. With Cl.ClCCN1C2=NCCCN2c2ccccc21 the solubility kinetic was > 40.8 µg/mL. With COc1ccc(OCCNC(=O)/C=C/c2ccccc2)cc1 the solubility kinetic was 4.9 µg/mL (≈ 16.5 µM). For COc1ccc(C(=O)NC(=S)N2CCCC2)cc1, the solubility kinetic was > 39.7 µg/mL. Work on O=C(NC(=S)Nc1ccc2nc[nH]c2c1)c1ccccc1 yielded a solubility kinetic of 35 µg/mL (≈ 118 µM). Molecule NS(=O)(=O)c1ccc(NC(=S)NC(=O)c2cccs2)cc1 has a solubility kinetic of 6.2 µg/mL (≈ 18.2 µM). For COc1ccc(/C=N/S(=O)(=O)c2ccc(C)cc2)cc1, the solubility kinetic was 41 µg/mL (≈ 142 µM). O=C(CNC(=O)c1ccco1)Nc1ccc(Br)cc1 gave a solubility kinetic of 14.1 µg/mL (≈ 43.6 µM). With CC(=O)OCC(=O)Nc1ccc(Br)c(C)c1 the solubility kinetic was > 42.9 µg/mL. For Cc1cc(NC(=O)c2cc(S(=O)(=O)N3CCCCC3)ccc2C)no1, the solubility kinetic was 14.2 µg/mL (≈ 39.1 µM). CCCCc1c(O)nc(SCC(=O)N2CCCCCC2)[nH]c1=O showed a solubility kinetic of 48.9 µg/mL (≈ 144 µM). For Cc1ccccc1OCC(=O)N1CCc2ccccc2C1, the solubility kinetic was 38.6 µg/mL (≈ 137 µM). In the case of COc1cc(S(=O)(=O)N2CCOCC2)cc(C(=O)NCC(c2cccs2)N2CCOCC2)c1OC (stereo unspecified), the solubility kinetic is reported as 7.4 µg/mL (≈ 14.1 µM). In the case of CC(C)NC(=O)N1CCC(c2nc3ccccc3s2)CC1, the solubility kinetic is reported as > 45.5 µg/mL. O=C(Nc1cccc2c1C(=O)NC2=O)c1ccccc1[N+](=O)[O-] gave a solubility kinetic of 6.9 µg/mL (≈ 22.2 µM). In the case of CCOc1ccc(N2C(=O)C3C4C=CC([C@H]5CC45)[C@@H]3C2=O)cc1 (stereo partly specified), the solubility kinetic is reported as 8.5 µg/mL (≈ 27.5 µM). With Cc1ccc(C(=O)N2CCN(c3ccccn3)CC2)cc1C the solubility kinetic was > 44.3 µg/mL. Work on Cc1ccc(S(=O)(=O)Nc2nc(C)c(C)s2)cc1 yielded a solubility kinetic of 13.5 µg/mL (≈ 47.8 µM). For O=C(CCNC(=O)c1ccco1)Nc1nc2ccccc2s1, the solubility kinetic was 4.5 µg/mL (≈ 14.3 µM). Cc1ccc(C(=O)CNc2ccccc2)cc1 gave a solubility kinetic of 4.1 µg/mL (≈ 18.2 µM). In the case of O=C(O)CCNC(=S)Nc1cccc(F)c1, the solubility kinetic is reported as > 36.3 µg/mL. For O=C(CNCCO)Nc1ccc(F)c(Cl)c1, the solubility kinetic was > 37 µg/mL. For COc1cc(C(=O)CSc2nccn2C)cc(OC)c1OC, the solubility kinetic was > 48.4 µg/mL. For COc1ccc(-n2ccc3ccccc32)cc1, the solubility kinetic was < 0.5 µg/mL. With Cc1cc(-c2onc(C)c2C(=O)O)no1 the solubility kinetic was > 31.2 µg/mL. In the case of CC(C)(C)n1cnnc1Sc1ncccc1[N+](=O)[O-], the solubility kinetic is reported as > 41.9 µg/mL. For CCCCN(CCO)c1ncnc2sc(-c3ccccc3)cc12, the solubility kinetic was < 0.2 µg/mL. COc1ccc2c(c1)CCC/C2=N/OC(=O)c1ccccc1OC gave a solubility kinetic of 2.6 µg/mL (≈ 7.99 µM). With Fc1ccc(CNc2ncnc3cc(Cl)ccc23)cc1 the solubility kinetic was 3.5 µg/mL (≈ 12.2 µM). COc1cc(/C=C/C(=O)O)cc(S(=O)(=O)N2CCCc3ccccc32)c1OC gave a solubility kinetic of 45.3 µg/mL (≈ 112 µM). In the case of COc1ccc(C2C(C(C)=O)=C(C)Nc3ncnn32)cc1[N+](=O)[O-] (stereo unspecified), the solubility kinetic is reported as > 49.4 µg/mL. Molecule CCOc1ccc(C(=O)CCN2CCOCC2)cc1.Cl has a solubility kinetic of 44.9 µg/mL. For O=C(COC(=O)Cc1ccc(F)cc1)NC1CCCC1, the solubility kinetic was > 41.9 µg/mL. For CC(=O)Nc1ccc(C(=O)CN2C(=O)CSC2=O)cc1, the solubility kinetic was > 43.8 µg/mL. For O=C(CS(=O)(=O)c1ccccc1)NCc1ccc(Cl)cc1, the solubility kinetic was 2.7 µg/mL (≈ 8.34 µM). With O=C(Cc1ccc(Br)cc1)N1CCCC1 the solubility kinetic was 37.6 µg/mL (≈ 140 µM). For COc1ccc(C(=O)O)c(OC)n1, the solubility kinetic was > 27.5 µg/mL. Molecule N#Cc1c(F)cccc1NCCCn1ccnc1 has a solubility kinetic of 30.7 µg/mL (≈ 126 µM). In the case of Cc1nc(NC(=O)COC(=O)C2CC2C)c(Cl)cc1Cl (stereo unspecified), the solubility kinetic is reported as > 47.6 µg/mL. Cc1cnc(N2C(=O)c3ccc([N+](=O)[O-])cc3C2=O)s1 showed a solubility kinetic of 28 µg/mL (≈ 96.8 µM). With CC(C)[C@H](NC(N)=O)C(=O)NCCc1ccc(Cl)cc1 the solubility kinetic was > 44.7 µg/mL. Cc1ccc(NC(=O)c2cc(C)no2)cc1 showed a solubility kinetic of 26.2 µg/mL (≈ 121 µM). With CNC(=O)Oc1ccc2c(c1)[C@]1(C)CCN(C)C1N2C.O=C(O)c1ccccc1O (stereo partly specified) the solubility kinetic was > 62 µg/mL. CCCCOc1ccc(Cc2c(O)nc(SC)[nH]c2=O)cc1 showed a solubility kinetic of 20 µg/mL (≈ 62.4 µM). In the case of O=C(Nc1ccccc1)/C(=C\c1ccco1)NC(=O)c1ccco1, the solubility kinetic is reported as > 48.3 µg/mL. For CC(=O)Nc1cccc(NC(=S)Nc2cccc3ccccc23)c1, the solubility kinetic was > 50.3 µg/mL. With CCOc1ccc(S(=O)(=O)n2cnc(C)c2)cc1 the solubility kinetic was 38.5 µg/mL (≈ 145 µM). Work on CSc1ncccc1C(=O)Nc1ccc2c(c1)OCCO2 yielded a solubility kinetic of 15.7 µg/mL (≈ 51.9 µM). For CCOc1ccc(C(=O)NC2CC(C)(C)NC(C)(C)C2)cc1.Cl, the solubility kinetic was > 51.1 µg/mL. Work on COC(=O)C1=C(C)N(CCc2c[nH]c3ccccc23)C(=O)C1 yielded a solubility kinetic of 42.8 µg/mL (≈ 143 µM). In the case of Cc1cc(C(=O)COc2cccc([N+](=O)[O-])c2)c(C)n1C1CC1, the solubility kinetic is reported as 6.2 µg/mL (≈ 19.7 µM). Cc1noc(C)c1COc1cccc(C(=O)Nc2ccc(Br)cc2F)c1 gave a solubility kinetic of 9.6 µg/mL (≈ 22.9 µM). With N/C(=N\OC(=O)c1ccc([N+](=O)[O-])cc1)c1ccccn1 the solubility kinetic was 3.2 µg/mL (≈ 11.2 µM). For CC1(C)Cc2ccccc2C(NN=C2CCCC2)=N1, the solubility kinetic was > 38.3 µg/mL. For CN(C)c1ccc(/C=C2\SC(N3CCCCC3)=NC2=O)cc1, the solubility kinetic was 4.7 µg/mL (≈ 14.9 µM). Cc1cc(C)cc(NC(=O)Nc2cc(S(=O)(=O)N(C)C)ccc2C)c1 showed a solubility kinetic of 0.6 µg/mL (≈ 1.66 µM). With Cc1ccc(F)cc1NC(=O)CCOc1ccccc1 the solubility kinetic was 8.3 µg/mL (≈ 30.4 µM). Work on Cn1cnc([N+](=O)[O-])c1SCC(O)CCl (stereo unspecified) yielded a solubility kinetic of 36.5 µg/mL (≈ 145 µM). For Cc1ccc(S(=O)(=O)Nc2cccc(Cl)c2)cc1NC(=O)C1CC1, the solubility kinetic was > 54.7 µg/mL.
